Test results from the supplement of paper PMC13380429.

Columns and labels:
Conditions in all cases: 72 h
HepG2 [1] = assay: drug sensitivity score (DSS) for viability; higher = more toxic; extreme values may be limits of the assay
U2OS [2] = assay: as above
Vero E6 [3] = assay: as above
Caco-2 [4] = assay: as above
Calu-3 [5] = assay: as above
HepG2 [6] = assay: cell viability relative to DMSO; higher = less toxic
U2OS [7] = assay: as above
Vero E6 [8] = assay: as above
Caco-2 [9] = assay: as above
Calu-3 [10] = assay: as above
HepG2 [11] = assay: relative viability EC50 (midpoint between 100% and the lowest measured viability); higher = less toxic
U2OS [12] = assay: as above
Vero E6 [13] = assay: as above
Caco-2 [14] = assay: as above
Calu-3 [15] = assay: as above

SMILES | drug sensitivity score (HepG2 [1]) | drug sensitivity score (U2OS [2]) | drug sensitivity score (Vero E6 [3]) | drug sensitivity score (Caco-2 [4]) | drug sensitivity score (Calu-3 [5]) | cell viability (HepG2 [6]; 1 nM) [%] | cell viability (HepG2 [6]; 10 nM) [%] | cell viability (HepG2 [6]; 100 nM) [%] | cell viability (HepG2 [6]; 1000 nM) [%] | cell viability (HepG2 [6]; 10000 nM) [%] | cell viability (U2OS [7]; 1 nM) [%] | cell viability (U2OS [7]; 10 nM) [%] | cell viability (U2OS [7]; 100 nM) [%] | cell viability (U2OS [7]; 1000 nM) [%] | cell viability (U2OS [7]; 10000 nM) [%] | cell viability (Vero E6 [8]; 1 nM) [%] | cell viability (Vero E6 [8]; 10 nM) [%] | cell viability (Vero E6 [8]; 100 nM) [%] | cell viability (Vero E6 [8]; 1000 nM) [%] | cell viability (Vero E6 [8]; 10000 nM) [%] | cell viability (Caco-2 [9]; 1 nM) [%] | cell viability (Caco-2 [9]; 10 nM) [%] | cell viability (Caco-2 [9]; 100 nM) [%] | cell viability (Caco-2 [9]; 1000 nM) [%] | cell viability (Caco-2 [9]; 10000 nM) [%] | cell viability (Calu-3 [10]; 1 nM) [%] | cell viability (Calu-3 [10]; 10 nM) [%] | cell viability (Calu-3 [10]; 100 nM) [%] | cell viability (Calu-3 [10]; 1000 nM) [%] | cell viability (Calu-3 [10]; 10000 nM) [%] | relative viability EC50 (HepG2 [11]) [µM] | relative viability EC50 (U2OS [12]) [µM] | relative viability EC50 (Vero E6 [13]) [µM] | relative viability EC50 (Caco-2 [14]) [µM] | relative viability EC50 (Calu-3 [15]) [µM]
Cc1c(-c2cnccn2)ssc1=S [oltipraz] | 0 | 0 | 0 | 0 | 0 | 93.4 | 103 | 94.2 | 94.7 | 105 | 98.3 | 96.5 | 101 | 96.4 | 104 | 88.1 | 95.2 | 88.7 | 93 | 104 | 94.2 | 96 | 103 | 106 | 101 | 94 | 94.7 | 106 | 96.5 | 101 | > 10 | > 10 | > 10 | > 10 | > 10
N[C@H](C(=O)O)c1ccc(O)cc1 [oxfenicine] | 0 | 0 | 0 | 0 | 0 | 84.1 | 96.3 | 96.9 | 103 | 100 | 99.7 | 103 | 98.6 | 102 | 95.7 | 99.7 | 96.3 | 101 | 91.3 | 99.1 | 94.2 | 90.6 | 88.6 | 88.6 | 96.3 | 103 | 95.1 | 99.2 | 103 | 103 | > 10 | > 10 | > 10 | > 10 | > 10
Oc1cccc2cccnc12 [oxyquinoline] | 0.3 | 0 | 0 | 3.1 | 0 | 119 | 79.7 | 110 | 102 | 80.9 | 101 | 97.5 | 103 | 97.5 | 100 | 96 | 100 | 94.2 | 103 | 90.8 | 109 | 96.4 | 84.7 | 93.2 | 88.7 | 101 | 114 | 95.5 | 104 | 98.8 | > 10 | > 10 | > 10 | > 10 | > 10
N=C(N)NC(=N)NCCc1ccccc1 [phenformin] | 0.3 | 0 | 0 | 0.5 | 0 | 106 | 101 | 102 | 98 | 85.8 | 95.9 | 97.6 | 93.8 | 98.8 | 97.1 | 98.8 | 95.3 | 107 | 98.4 | 96.4 | 86.7 | 101 | 93.7 | 91.8 | 81.5 | 90.2 | 100 | 96.5 | 98.8 | 102 | > 10 | > 10 | > 10 | > 10 | > 10
CNC[C@H](O)c1cccc(O)c1 [phenylephrine] | 0 | 0 | 0 | 0 | 0 | 98.7 | 101 | 99.1 | 93.5 | 111 | 98.9 | 96.1 | 98.9 | 102 | 101 | 96.6 | 99.7 | 95.6 | 93.5 | 102 | 99.2 | 91 | 96.4 | 92.4 | 99.7 | 103 | 92.5 | 95.7 | 98.9 | 97.5 | > 10 | > 10 | > 10 | > 10 | > 10
O=C(Nc1cccc2c(=O)cc(-c3nnn[nH]3)oc12)c1ccc(OCCCCc2ccccc2)cc1 [pranlukast] | 0 | 0 | 0 | 0 | 0 | 95.7 | 95.6 | 104 | 101 | 99.9 | 96.7 | 97.2 | 94.3 | 98.6 | 95.2 | 99.6 | 94.4 | 93.8 | 97.1 | 96 | 94.1 | 91.3 | 94.6 | 99.1 | 86.7 | 102 | 111 | 93.1 | 96.8 | 88.9 | > 10 | > 10 | > 10 | > 10 | > 10
CC(=O)[C@H]1CC[C@H]2[C@@H]3CC=C4C[C@@H](OC(=O)CCC(=O)O)CC[C@]4(C)[C@H]3CC[C@]12C [pregnenolone-succinate] | 0 | 0 | 0 | 0.3 | 0 | 93.3 | 93.8 | 94.4 | 95 | 97 | 101 | 94.7 | 100 | 97.9 | 99.9 | 94.1 | 96.8 | 88.7 | 97.3 | 107 | 90.5 | 97.4 | 110 | 94.2 | 87.7 | 89.8 | 95.1 | 93.7 | 94.1 | 113 | > 10 | > 10 | > 10 | > 10 | > 10
CNNCc1ccc(C(=O)NC(C)C)cc1 [procarbazine] | 0 | 0 | 0 | 0 | 0 | 103 | 87.7 | 93.3 | 112 | 110 | 96 | 103 | 96.4 | 98.7 | 106 | 103 | 93.2 | 102 | 89 | 102 | 98.2 | 105 | 96.2 | 101 | 87.4 | 92.2 | 99.3 | 97.4 | 102 | 90.8 | > 10 | > 10 | > 10 | > 10 | > 10
Cc1cc(/C=C/c2ccc3cc(N(C)C)ccc3[n+]2C)c(C)n1-c1ccccc1 [pyrvinium-pamoate] | 11.9 | 10.6 | 8.4 | 11.1 | 9.9 | 104 | 110 | 98 | 42 | 9.6 | 107 | 106 | 103 | 60 | 3.8 | 106 | 97.4 | 100 | 78 | 10.6 | 107 | 93 | 102 | 46.9 | 13.3 | 105 | 101 | 99.3 | 63 | 9.3 | 0.745 | 1.15 | 1.56 | 0.834 | 1.16
C#CCN[C@@H]1CCc2ccccc21 [rasagiline] | 0 | 0 | 0 | 0 | 0 | 103 | 117 | 110 | 104 | 99.6 | 99.8 | 105 | 97.5 | 106 | 97.2 | 106 | 104 | 102 | 104 | 97.1 | 97 | 98 | 91.5 | 99 | 94.2 | 87 | 96.3 | 100 | 97.3 | 99.6 | > 10 | > 10 | > 10 | > 10 | > 10
CNC(=O)c1cnn(-c2nc(N)c3ncn([C@@H]4O[C@H](CO)[C@@H](O)[C@H]4O)c3n2)c1 [regadenoson] | 0 | 0 | 0 | 0 | 0 | 102 | 105 | 102 | 90.7 | 117 | 95.9 | 92.1 | 102 | 99 | 104 | 101 | 93.7 | 86.2 | 103 | 111 | 101 | 97.4 | 91.1 | 94.3 | 108 | 91.7 | 104 | 106 | 102 | 103 | > 10 | > 10 | > 10 | > 10 | > 10
COc1ccc(S(=O)(=O)N2c3ccc(Cl)cc3[C@](O)(c3ccccc3Cl)[C@@H]2C(=O)N2CCC[C@H]2C(N)=O)cc1OC [relcovaptan] | 0 | 0 | 0 | 0 | 0 | 108 | 99.4 | 108 | 98.8 | 94.3 | 103 | 105 | 102 | 105 | 99.2 | 103 | 99.8 | 92.4 | 97.2 | 97.5 | 102 | 102 | 91.6 | 102 | 87.5 | 91.8 | 100 | 93.3 | 108 | 86.7 | > 10 | > 10 | > 10 | > 10 | > 10
O=C(O)c1cc(O)c2c(c1)C(=O)c1cccc(O)c1C2=O [rhein] | 0.2 | 0 | 0 | 0 | 0 | 110 | 95.5 | 106 | 93.3 | 88.6 | 103 | 98.4 | 99 | 98.2 | 102 | 98.7 | 92.7 | 95.5 | 99.1 | 99.2 | 100 | 102 | 97.6 | 95.7 | 98.1 | 90 | 96.6 | 106 | 98.5 | 111 | > 10 | > 10 | > 10 | > 10 | > 10
CCC(=O)[C@@]1(C)[C@H](C)C[C@H]2[C@@H]3CCC4=CC(=O)C=C[C@]4(C)[C@H]3[C@@H](O)C[C@@]21C [rimexolone] | 0 | 0 | 0 | 0 | 0 | 86.3 | 102 | 95.4 | 112 | 92.8 | 99.8 | 98.9 | 100 | 95.5 | 97 | 93.8 | 95.2 | 90 | 94.7 | 100 | 85.5 | 90.5 | 101 | 88.8 | 107 | 98.4 | 99 | 89.4 | 102 | 96.4 | > 10 | > 10 | > 10 | > 10 | > 10
NC(=O)c1ccc(F)c2c1C[C@@H](N(C1CCC1)C1CCC1)CO2 [robalzotan] | 0 | 0 | 0 | 0 | 0 | 105 | 101 | 99.5 | 96.9 | 100 | 102 | 107 | 97.7 | 105 | 99.1 | 102 | 99.8 | 107 | 94.4 | 103 | 92.7 | 98.3 | 97.5 | 105 | 99.5 | 98.8 | 110 | 94.5 | 91.2 | 97.7 | > 10 | > 10 | > 10 | > 10 | > 10
